In patent US9126056B2, “Method of promoting hair growth” (ENERGENESIS BIOMEDICAL CO., LTD., priority 2010, dated 2015):

Test system: human dermal papilla cells
Assay: Human dermal papilla cell proliferation test
Format: cell-based
Conditions: 0.002% in culture media; cell count at 12-60 hour; FIG. 1
Description: The promotion of cell proliferation by adenine was evaluated using human dermal papilla cells, compared with adenosine, and minoxidil under the following conditions, the results are shown in FIG. 1.
Determination of the proliferation of human dermal papilla cells in the culture media containing adenine, adenosine, and minoxidil. Supplements: 0.002% of adenine, adenosine, minoxidil.
• (1) Prepare 0.002% adenine, adenosine, minoxidil containing testing media using the hair follicle dermal papilla cell media (cat. No. 611-500, Cell applications, Inc). • (2) Seed the isolated human dermal papilla cells in 96-well culture plate with a density of 5,000 cells per well. Add 0.1 mL prepared culture media into individual well. • (3) At 12, 24, 36, 48 and 60 hour after cell seeding, visually count the total cell number using hemacytometer. • (4) Evaluate the result.

Compound: Nc1ncnc2nc[nH]c12 [adenine]
- proliferation of human dermal papilla cells (in words): promotes the proliferation
